Laboratory results: patent US12624040B2, “Compositions of substituted pyrazolopyrimidines and uses thereof” (KSQ Therapeutics, Inc., priority 2020, dated 2026)

Legend:
[1] = Aqueous solubility / BCS classification; format: physicochemical; conditions: for BCS class: low solubility/high permeability; for Solubility in water: physiological pHs (from pH 1.5-8.0)
From the text: Studies of these compounds indicate that these compounds are BCS class II compounds (low solubility/high permeability). […] Poor bioavailability is also often accompanied by highly variable patient blood levels and unpredictable dose/therapeutic effects due to erratic absorption of the drug by the patient. Accordingly, a need exists for compositions and methods to increase the solubility of these compounds.

Row | BCS class [1] | Solubility in water [1] | Bioavailability (Bioavailability) | Compound
1 | BCS class II | poorly soluble | low bioavailability | COc1ncnc(C2CC2)c1-c1ncc2cnn(Cc3ccc(-n4nc(C(F)(F)F)cc4C)cc3)c2n1 [Formula III, 6-(4-cyclopropyl-6-methoxypyrimidin-5-yl)-1-(4-(5-methyl-3-(trifluoromethyl)-1H-pyrazol-1-yl)benzyl)-1H-pyrazolo[3,4-d] pyrimidine]
2 | BCS class II | poorly soluble | low bioavailability | COc1ncnc(C2CC2)c1-c1ncc2cnn(Cc3ccc(-c4nc(C(F)(F)F)cn4C(C)C)cc3)c2n1 [Formula II, 6-(4-cyclopropyl-6-methoxypyrimidin-5-yl)-1-(4-(1-isopropyl-4-(trifluoromethyl)-1H-imidazol-2-yl)benzyl)-1H-pyrazolo[3,4-d]pyrimidine]
